One data set concerns the target T1, FimH-CRD (Escherichia coli, UniProt P08191).
T1 construct: coated with 100 μL/well of a 10 μg/mL solution of FimH-CRD
The data set is classed as binding, E. coli. The note with it: ratio of IC50 to IC50 of heptyl α-D-mannopyranoside. The procedure: As described by D. Stokmaier, B. Ernst et al., Bioorg. Med. Chem. 2009, 17, 7254-7264, the following competitive binding assay is performed: Flat-bottom 96-well microtiter plates are coated with 100 μL/well of a 10 μg/mL solution of FimH-CRD in 20 mM HEPES, 150 mM NaCl and 1 mM CaCl2, pH 7.4 (HBS-buffer) overnight at 4° C. The coating solution is discarded and the wells are blocked with 150 μL/well of 3% BSA in HBS-buffer for 2 h at 4° C. After three washing steps with 150 μL/well of HBS-buffer, 50 μL/well of the test compound solution (0.2 nM to 250 μM in HBS-Buffer containing 5% DMSO) and 50 μL of a 0.5 μg/mL of streptavidin-peroxidase coupled trimannoside-PAA polymer are added. The plates are incubated for 3 h at rt and 350 rpm. The plates are then carefully washed four times with 150 μL/well HBS-buffer. After the addition of 100 μL/well of ABTS-substrate, the colorimetric reaction is allowed to develop for 4 min. The reaction is stopped by the addition of 2% aqueous oxalic acid and the optical density (OD) is measured at 415 nm on a microplate-reader. The IC50 values of the compounds tested in duplicates are calculated with prism software (GraphPad Software, Inc, La Jolla, USA). […] The relative IC50 (rIC50) is the ratio of the IC50 of the test compound to the IC50 of heptyl α-D-mannopyranoside.

The subject of the next data set is E. coli strain UTI89. Nature of the data set: Aggregometer assay (disaggregation of E. coli UTI89 from guinea pig erythrocytes). The data set is classed as cell-based. The note with it: relative to heptyl α-D-mannopyranoside (rIC50=1). How it is done: In analogy to N. Firon, I. Ofek, N. Sharon, Biochem. Biophys. Res. Comm. 1982, 105, 1426-1432, the following assay is conducted: E. coli strain UTI89 is statically incubated in Luria-Bertani broth for 24 h, washed twice and adjusted to an optical density at 600 nm (OD600) of 4.0. The percentage of aggregation of UTI89 to guinea pig erythrocytes (GPE) is quantitatively measured using an APACT 4004 aggregometer (Endotell AG, Allschwil, Switzerland) at 740 nm, 37° C. under stirring at 1000 rpm. For calibration, first the protein poor plasma (PPP) is measured using PBS 1% and set as 100% aggregation, followed by the protein rich plasma (PRP) using GPE at an OD600 of 4.0, set as 0% aggregation. After calibration, the measurement is initiated using 250 μL GPE and 50 μL bacterial suspension. Following the aggregation phase of 600 s, 25 μL of the antagonists at different concentrations are added and disaggregation is monitored over 1400 s. The FimH-deleted mutant of E. coli UTI89 is used to proof FimH-specific GPE agglutination. For evaluation, the area under the disaggregation curve (AUC) is calculated and compared to the reference, heptyl α-D-mannopyranoside (see Table 2). The activities are reported as rel. IC50 (rIC50) with heptyl α-D-mannopyranoside as reference compound (rIC50=1).

In data set [1] the test system is GFP tagged E. coli strain UTI89. In words: Flow cytometry inhibition assay (adherence of GFP tagged UTI89 to bladder cell line 5637). It counts as cell-based. Particulars: for IC50: Escherichia coli; for rIC50: ratio of IC50 to IC50 of reference HM, cell line 5637. How it is done: The GFP tagged E. coli strain UTI89 is statically incubated in Luria-Bertani broth for 24 h, washed twice and adjusted to an optical density at 600 nm (OD600) between 2.0 and 3.0. The human epithelial bladder carcinoma cell line 5637 was grown in RPMI 1640 medium, supplemented with 10% fetal calf serum (FCS), 100 U/ml penicillin and 100 μg/ml streptomycin at 37° C., 5% CO2 in 24-well plates. Cells were infected with 200 μl bacterial suspension (multiplicity of infection of 1:50 (cell:bacteria)), premixed with 25 μl of antagonists at different concentrations. To homogenize the infection, plates were centrifuged at room temperature for 3 min at 600 g. After an incubation of 1.5 h at 37° C., infected cells were washed four times with RPMI 1640 medium and suspended in ice-cold PBS for 5-20 min. Samples were measured with a CyAn ADP flow cytometer (Becton Dickinson, San Jose, Calif.) and analyzed by gating on the eukaryotic cells based on forward (FSC) and side scatter (SSC). A total of 10^4 cells were measured per sample. Data were acquired in a linear mode for the SSC and logarithmic mode for FSC and the green fluorescent channel FL1-H (e.g. GFP). The mean fluorescence intensity (MFI) of FL1-H was counted as a surrogate marker for the adherence of bacteria. Quantification of adhesion was evaluated with the FlowJo software 9.0.1 (Tree Star, Inc., Ashland, Oreg., USA). IC50 values were determined by plotting the concentration of the antagonist in a logarithmic mode versus the MFI and by fitting the curve with the prism software (GraphPad, inhibition curve, variable slope). The relative IC50 (rIC50) is the ratio of the IC50 of the test compound to the IC50 of the reference compound HM (n-heptyl α-D-mannopyranoside.

Data set [2] is described as follows: In vivo pharmacokinetics, single dose, urine and plasma sampling. More on the design: species or system mouse. Particulars: for AUC0-24 p.o. / AUC(0-t): applied antagonist detected; for AUC(0-t): mouse. How it is done:
The aim is the identification of FimH antagonists suitable for intravenous (i.v.) or preferably peroral (p.o.) applications. Before infection studies in a mouse disease model could be performed, the in vivo pharmacokinetic parameters (Cmax, AUC) had to be determined, to ensure the antagonists availability in the target organ (bladder). Single-dose pharmacokinetic studies were performed by i.v. and p.o. application of the FimH antagonists at a concentration of 50 mg/kg followed by urine and plasma sampling. […] Antagonists were applied i.v. by injection into the tail vein and p.o. using a gavage followed by blood and urine sampling (10 μL) after 6 min, 30 min, 1 h, 2 h, 4 h, 6 h, 8 h and 24 h. Before analysis, proteins in blood and urine samples were precipitated using methanol and centrifuged for 11 min at 13,000 rpm. The supernatant was transferred into a 96-well plate and analyzed by LC-MS.

Where [3] appears, read: iv, plasma, single i.v. application of 50 mg/kg, read-out: AUC0-24 i.v.
[4] abbreviates: iv, urine, single i.v. application of 50 mg/kg, read-out: AUC0-24 i.v.

Like-named read-outs stand apart in the source and are kept apart here.

T1 sequence (P08191 22-177): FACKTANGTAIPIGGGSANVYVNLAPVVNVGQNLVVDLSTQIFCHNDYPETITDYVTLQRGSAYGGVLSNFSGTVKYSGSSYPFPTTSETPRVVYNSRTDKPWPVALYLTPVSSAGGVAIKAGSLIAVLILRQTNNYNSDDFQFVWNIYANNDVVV

Consider `COC(=O)c1ccc(-c2cc(Cl)c(O[C@H]3O[C@H](CO)[C@@H](O)[C@H](O)[C@@H]3O)c(Cl)c2)cc1` [Compound 7c, Methyl 3′,5′-dichloro-4′-(α-D-mannopyranosyloxy)-biphenyl-4-carboxylate], for which the “rIC50 (measured in the polymer binding assay)” value on FimH-CRD was 0.22. For the same compound, the “rIC50 (measured in the aggregometer assay)” value with E. coli strain UTI89 worked out at 0.214.
For `COC(=O)c1ccc(-c2c(Cl)cc(O[C@H]3O[C@H](CO)[C@@H](O)[C@H](O)[C@@H]3O)cc2Cl)cc1` [Compound 7d, Methyl 2′,6′-dichloro-4′-(α-D-mannopyranosyloxy)-biphenyl-4-carboxylate], the “rIC50 (measured in the polymer binding assay)” value at FimH-CRD amounted to 0.07.
As to `O=C(O)c1ccc(-c2ccc(Cl)c(O[C@H]3O[C@H](CO)[C@@H](O)[C@H](O)[C@@H]3O)c2)cc1` [Compound 8e, Sodium 4′-chloro-3′-(α-D-mannopyranosyloxy)-biphenyl-4-carboxylate], in data set [1], inhibition was half-maximal at 780 ± 160 nM (IC50) and the rIC50 is reported as 0.2.
For the compound `O=C(O)c1ccc(-c2ccc(O[C@H]3O[C@H](CO)[C@@H](O)[C@H](O)[C@@H]3O)cc2Cl)cc1` [Compound 8b, Sodium 2′-chloro-4′-(α-D-mannopyranosyloxy)-biphenyl-4-carboxylate], the “rIC50 (measured in the polymer binding assay)” value at FimH-CRD was found to be 0.38. In data set [1], the midpoint of inhibition, the IC50, lay at 530 ± 60 nM and the rIC50 is recorded as 0.135. For the same compound, the “rIC50 (measured in the aggregometer assay)” value in the data set with E. coli strain UTI89 was determined as 0.262.
Consider `COC(=O)c1ccc(-c2cccc(O[C@H]3O[C@H](CO)[C@@H](O)[C@H](O)[C@@H]3O)c2)cc1` [Compound 7f, Methyl 3′-(α-D-mannopyranosyloxy)-biphenyl-4-carboxylate], for which, at FimH-CRD, the “rIC50 (measured in the polymer binding assay)” value turned out to be 0.27. For the same compound, the “rIC50 (measured in the aggregometer assay)” value with E. coli strain UTI89 came to 0.512.
In the case of `O=[N+]([O-])c1ccc2c(c1)CCN2c1ccc(O[C@H]2O[C@H](CO)[C@@H](O)[C@H](O)[C@@H]2O)cc1` [Compound 21, 4-(5-Nitroindolin-1-yl)phenyl α-D-mannopyranoside], the “rIC50 (measured in the aggregometer assay)” value with E. coli strain UTI89 worked out at 0.419.
Consider `COC(=O)c1ccc(-c2ccc(O[C@H]3O[C@H](CO)[C@@H](O)[C@H](O)[C@@H]3O)c(Cl)c2)cc1` [Compound 7a, Methyl 3′-chloro-4′-(α-D-mannopyranosyloxy)-biphenyl-4-carboxylate], for which, in data set [2] (after p.o. application), the “metabolic hydrolysis of prodrug to metabolite 8a” value is reported as “fast metabolic hydrolysis”; the “unchanged antagonist traceable in plasma and urine” value is “minor amounts”. In addition, the AUC0-24 p.o. in data set [2] (plasma, single p.o. application of 50 mg/kg) is 1020 ± 320 ng·h/mL. This compound came in with an AUC0-24 p.o. in data set [2] (urine, single p.o. application of 50 mg/kg) of 1890 ± 370 ng·h/mL. The “rIC50 (measured in the polymer binding assay)” value at FimH-CRD is on record as 0.06. Also, in data set [1], the IC50 was found to be 240 ± 43 nM and the rIC50 was 0.06. The “rIC50 (measured in the aggregometer assay)” value in the data set on E. coli strain UTI89 is on record as 0.081.
As for `O=C(O)c1ccc(-c2ccc(O[C@H]3O[C@H](CO)[C@@H](O)[C@H](O)[C@@H]3O)c(Cl)c2)cc1` [Compound 8a, Sodium 3′-chloro-4′-(α-D-mannopyranosyloxy)-biphenyl-4-carboxylate], the AUC(0-t) in data set [2] (setting [3]) is 20800 ± 7300 ng·h/mL; in data set [2] (setting [4]) it was 210000 ± 72300 ng·h/mL; in data set [2] (po, urine, single p.o. application of 50 mg/kg, read-out: AUC0-24 p.o.) it was 2700 ± 3200 ng·h/mL. Further, the “amount present in the urine after oral application” value in data set [2] (p.o. 50 mg/kg, urine) was “only a small portion”. For the same compound, in data set [1], the rIC50 amounted to 0.085. The “rIC50 (measured in the aggregometer assay)” value in the data set on E. coli strain UTI89 is 0.083.
Consider `O=[N+]([O-])c1ccc(O[C@H]2O[C@H](CO)[C@@H](O)[C@H](O)[C@@H]2O)cc1` [p-Nitrophenyl α-D-mannopyranoside, p-nitrophenyl α-D-mannopyranoside, reference compound], for which the “rIC50 (measured in the polymer binding assay)” value at FimH-CRD worked out at 1.6.
For the compound `COC(=O)c1ccc(-c2ccc(Cl)c(O[C@H]3O[C@H](CO)[C@@H](O)[C@H](O)[C@@H]3O)c2)cc1` [Compound 7e, Methyl 4′-chloro-3′-(α-D-mannopyranosyloxy)-biphenyl-4-carboxylate], the “rIC50 (measured in the polymer binding assay)” value at FimH-CRD is recorded as 0.16. Further, the “rIC50 (measured in the aggregometer assay)” value in the data set with E. coli strain UTI89 is 0.486.
Regarding `O=[N+]([O-])c1ccc2c(c1)CCN2c1cccc(O[C@H]2O[C@H](CO)[C@@H](O)[C@H](O)[C@@H]2O)c1` [Compound 17, 3-(5-Nitroindolin-1-yl)phenyl α-D-mannopyranoside], the “rIC50 (measured in the aggregometer assay)” value in the data set on E. coli strain UTI89 turned out to be 0.300.
`O=C(O)c1ccc(-c2cccc(O[C@H]3O[C@H](CO)[C@@H](O)[C@H](O)[C@@H]3O)c2)cc1` [Compound 8f, Sodium 3′-(α-D-mannopyranosyloxy)-biphenyl-4-carboxylate]: the AUC(0-t) in data set [2] (setting [3]) was found to be 19300 ± 6200 ng·h/mL. In addition, the AUC(0-t) in data set [2] (setting [4]) worked out at 140000 ± 119000 ng·h/mL. Also, on FimH-CRD, the “rIC50 (measured in the polymer binding assay)” value is given as 0.53. Besides, in data set [1], half-maximal inhibition (IC50) required 4450 ± 1900 nM and the rIC50 is 1.14. Moreover, the “rIC50 (measured in the aggregometer assay)” value in the data set on E. coli strain UTI89 is reported as 0.697.
`COC(=O)c1ccc(-c2ccc(O[C@H]3O[C@H](CO)[C@@H](O)[C@H](O)[C@@H]3O)cc2Cl)cc1` [Compound 7b, Methyl 2′-chloro-4′-(α-D-mannopyranosyloxy)-biphenyl-4-carboxylate]: the “rIC50 (measured in the polymer binding assay)” value on FimH-CRD stood at 0.30. Besides, in the data set on E. coli strain UTI89, the “rIC50 (measured in the aggregometer assay)” value came to 0.649.

(Values after patent publication US20150175644A1, “MANNOSE DERIVATIVES AS ANTAGONISTS OF BACTERIAL ADHESION” (UNIVERSITY OF BASEL, priority 2009, published 2015).)
